According to patent US20150031892A1, “SPHINGOLIPID METABOLITE MIMETICS” (Zhejiang University, priority 2012, published 2015):

What was measured:
Assay type in all cases: cell-based
[1] = system: A431; assay: MTT cytotoxicity assay, A431 (squamous carcinoma); conditions: Homo sapiens, A-431
Experimental: (§1) Cell survival after exposure to the sphingolipid metabolite mimetics was examined by MTT cytotoxicity assay. HepG2, A431, HeLa, MCF-7 and SA cells (7000 cells/well) were seeded in each well of a 96-well plate for 24 h. New medium was added to give final concentrations of 0 to 200 μM of the sphingolipid metabolite mimetics. Then, 50 μl of 1 mg/ml 3-(4,5-dimethylthiazol-2-yl)-2,5-diphenyltetrazolium bromide (MTT, Sigma-Aldrich Chemical) was added to each well for 4 h incubation at 37° C. The purple formazan formed was then solubilized by DMSO and absorbance at 570 nm was read by a microplate reader (Molecular Devices, Sunnyvale, Calif.).

[2] = system: SA; assay: MTT cytotoxicity assay, SA (pancreatic cancer as headed)
Experimental: as §1

[3] = system: multiple types of cancer cells; assay: MTT cytotoxicity, statements over several cancer cell lines; conditions: for direct anti-cancer cell activity: summary statement
Experimental: as §1

[4] = system: SW480; assay: MTT cytotoxicity assay, SW480 (colon cancer); conditions: Homo sapiens
[5] = system: MCF-7; assay: MTT cytotoxicity assay, MCF-7 (breast cancer); conditions: Homo sapiens, MCF7; Breast Cancer MCF-7, MTT
Experimental: as §1

[6] = system: SW620; assay: MTT cytotoxicity assay, SW620 (colon cancer); conditions: Homo sapiens, SW-620
[7] = system: SiHa; assay: MTT cytotoxicity assay, SiHa (ovarian cancer as headed); conditions: Homo sapiens, Cervical Cancer SiHa
[8] = system: HepG2; assay: MTT cytotoxicity assay, HepG2 (liver cancer); conditions: Homo sapiens
Experimental: as §1

Compound	IC50 [1] [µM]	IC50 [2] [µM]	direct anti-cancer cell activity [3]	IC50 [4] [µM]	IC50 [5] [µM]	IC50 [6] [µM]	IC50 [7] [µM]	IC50 [8] [µM]	IC50 ([3]; multiple types of cancer cells, read-out: IC50) [µM]
CCCCCCCCNC(=O)[C@@H](NC(=O)c1ccccc1)[C@@H](C)O [NZJU39, N-((2S,3R)-3-hydroxy-1-oxo-1-(octylamino)butan-2-yl)-benzamide]	61.3 ± 4.09	34.6 ± 4.17	direct anti-cancer cell activity	> 200	111 ± 4.66	≥ 200	112 ± 2.43	136 ± 5.92	
CCCCCCCCCCCCCCNC(=O)[C@@H](N)[C@@H](C)O [NZJU46, (2S,3R)-2-Amino-3-hydroxy-N-tetradecylbutanamide]	14.6 ± 0.76	11 ± 1.39	direct anti-cancer cell activity		10.7 ± 0.98	18.7 ± 3.81	11 ± 1.39		
CCCCCCCCCCCCNC(=O)[C@@H](NC(=O)c1cccs1)[C@@H](C)O [NZJU33, N-((2S,3R)-3-hydroxy-1-oxo-1-(dodecylamino)butan-2-yl)-2-thiophene carboxamide]	16.6 ± 2.12	23.3 ± 3.33	direct anti-cancer cell activity	30.2	30.4 ± 2.8	29.2 ± 0.57	23.9 ± 3.65	30.1 ± 3.84	
CCCCCCCCCCCCNC(=O)[C@@H](NC(=O)c1cc2ccccc2[nH]1)[C@@H](C)O [NZJU47, N-((2S,3R)-3-hydroxy-1-oxo-1-(dodecylamino)butan-2-yl)-indole-2-carboxamide]	10.3 ± 2.78	12.3 ± 2.75	direct anti-cancer cell activity	10.2 ± 0.73			21.25 ± 0.01	12 ± 2.38	< 20
CCCCCCCCCCCCCCNC(=O)[C@@H](NS(=O)(=O)c1cccs1)[C@@H](C)O [NZJU60, N-((2S,3R)-3-hydroxy-1-oxo-1-(tetradecylamino)butan-2-yl)-2-thiophene sulfonamide]	22 ± 0.56	11.6 ± 2.2	direct anti-cancer cell activity	11.8 ± 1.25			20.4 ± 2.47	21.6 ± 2.05	
CCCCCCCCCCCCCCNC(=O)[C@@H](NS(=O)(=O)c1ccc2ccccc2c1)[C@@H](C)O [NZJU62, N-((2S,3R)-3-hydroxy-1-oxo-1-(tetradecylamino)butan-2-yl)-2-naphthylsulfonamide]	19.6 ± 2.16	10.2 ± 0.3	direct anti-cancer cell activity	5.76 ± 1.02			11.1 ± 1.39	11.4 ± 1.11	
CCCCCCCCNC(=O)[C@@H](NC(=O)/C=C/c1ccccc1)[C@@H](C)O [NZJU42, (E)-N-((2S,3R)-3-hydroxy-1-oxo-1-(octylamino)butan-2-yl)-3-phenyl acrylic acid amide]	36 ± 3.36	25.6 ± 4.41		62.7	35.06 ± 0.2	61.35 ± 0.27	41.4 ± 5.96	55.6 ± 0.64	
C/C=C/C=C/C(=O)N[C@H](C(=O)NCCCCCCCCCCCC)[C@@H](C)O [NZJU10, (2E,4E)-N-((2S,3R)-3-hydroxy-1-oxo-1-(dodecylamino)butan-2-yl)-2,4-hexadienoic acid amide]	171 ± 12.1	189 ± 12.2		> 200	37.1 ± 4.11	≥ 200	> 200	> 400	
CCCCCCCCCCCCCCNC(=O)[C@@H](NS(=O)(=O)c1ccc(C)cc1)[C@@H](C)O [NZJU57, N-((2S,3R)-3-hydroxy-1-oxo-1-(tetradecylamino)butan-2-yl)-4-methylbenzsulfonamide]	12 ± 1.87	10.9 ± 1.25	direct anti-cancer cell activity	11.8 ± 1.38			19.2 ± 2.14	10.9 ± 0.54	
CCCCCCCCCCCCCCCCCCNC(=O)[C@@H](NC(=O)c1nccc2ccccc12)[C@@H](C)O [NZJU32, N-((2S,3R)-3-hydroxy-1-oxo-1-(octadecylamino)butan-2-yl)-isoquinoline-1-carboxamide]	44.1 ± 2.02	49.1 ± 4.72		30.7	30.8 ± 0.67	136 ± 13.3	51.2 ± 3.46	96.9 ± 6.77	
